Patent publication US12522594B2, “2-heteroaryl-3-oxo-2,3-dihydropyridazine-4-carboxamides for the treatment of cancer” (Deutsches Krebsforschungszentrum, priority 2017, dated 2026)

Legend:
Format in all cases: cell-based
AHR [1] = target: T1, AHR (Homo sapiens, UniProt P35869); assay: In vitro assay 2: agonism in human cell line (transactivation assay, U87 cells, DRE firefly luciferase reporter); design: host or cells: U87 glioblastoma cells, stably transfected with DRE firefly luciferase and renilla reporter constructs; conditions: no kynurenic acid, 20 hours, read-out: Assay 2: AHR-luc Hum Agonism IC50
T1 sequence (P35869 11-848): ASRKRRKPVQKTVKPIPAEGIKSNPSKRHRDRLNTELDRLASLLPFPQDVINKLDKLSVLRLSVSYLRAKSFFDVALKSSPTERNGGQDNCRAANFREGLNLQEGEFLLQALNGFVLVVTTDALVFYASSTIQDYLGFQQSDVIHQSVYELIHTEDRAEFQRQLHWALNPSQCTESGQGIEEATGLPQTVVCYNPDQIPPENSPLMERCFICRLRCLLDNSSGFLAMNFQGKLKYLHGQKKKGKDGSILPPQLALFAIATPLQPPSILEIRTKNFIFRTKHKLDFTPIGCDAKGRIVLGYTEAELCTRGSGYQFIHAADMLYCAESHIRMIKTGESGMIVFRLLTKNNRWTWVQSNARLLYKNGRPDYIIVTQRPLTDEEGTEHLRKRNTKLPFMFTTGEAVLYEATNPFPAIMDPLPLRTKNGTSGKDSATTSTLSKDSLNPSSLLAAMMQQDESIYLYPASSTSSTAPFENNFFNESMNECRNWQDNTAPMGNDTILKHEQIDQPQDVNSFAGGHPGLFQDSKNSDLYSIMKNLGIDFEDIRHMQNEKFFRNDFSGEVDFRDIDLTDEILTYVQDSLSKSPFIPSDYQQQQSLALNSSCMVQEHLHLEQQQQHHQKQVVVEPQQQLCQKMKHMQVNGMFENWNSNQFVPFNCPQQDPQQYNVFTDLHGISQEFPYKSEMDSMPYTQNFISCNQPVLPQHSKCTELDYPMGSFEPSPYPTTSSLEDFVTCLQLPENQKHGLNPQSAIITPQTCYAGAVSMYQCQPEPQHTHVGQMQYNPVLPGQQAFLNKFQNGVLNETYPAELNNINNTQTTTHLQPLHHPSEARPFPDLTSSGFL
Summary of the method: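 U87 glioblastoma cells with endogenous AHR, stably carrying DRE-driven firefly luciferase and constitutive renilla reporters. 300 uM kynurenic acid served as positive activation control; data normalized to positive and negative controls.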

AHR [2] = target: T1, AHR; assay: In vitro assay 1: antagonism in human cell line (transactivation assay, U87 cells prestimulated with kynurenic acid, DRE firefly luciferase reporter); design: host or cells: U87 glioblastoma cells, stably transfected with DRE firefly luciferase and renilla reporter constructs; conditions: 150 uM kynurenic acid, 20 hours, read-out: Assay 1: AHR-luc Hum Antagonism IC50
Summary of the method: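 U87 glioblastoma cells with endogenous AHR, stably carrying a DRE-driven firefly luciferase reporter and a constitutive renilla reporter. Cells prestimulated with the AHR agonist kynurenic acid before compound addition; data normalized to positive and negative controls.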

AHR [3] = target: T1, AHR; assay: In vitro assay 3: AHR-regulated CYP1A1 expression in human cell line (U937, qPCR, KA stimulation); conditions: U937 cells, 200 uM KA, 6 hours, CYP1A1 expression by qPCR; read-out: Assay 3: Hum CYP1A1 Antagonism IC50
Procedure: In Vitro Assay 3: AHR-Regulated CYP1A1 Expression in Human Cell Line
To assess the AHR inhibitory activity of the substances described in this application, the ability thereof to antagonise ligand-induced AHR gene regulation in a dose-dependent manner was quantified. For this purpose, quantitative PCR analysis was used to determine expression of the AHR-regulated gene CYP1A1 in a human monocytic U937 cell line upon stimulation with 200 uM KA in the presence and absence of AHR inhibitor. […] CYP1A1 expression was induced with 200 uM KA (positive control) in the presence or absence of the substances for 6 hours. Human U937 cells were typically incubated with eight different concentrations of the substances (1 nM, 3 nM, 10 nM, 30 nM, 100 nM, 300 nM, 1 uM and 3 uM) and analyzed in duplicate on the same microtitre plate. […] Unstimulated cells were used as the negative control. Taqman probes for human CYP1A1 (Hs01054797_g1) and human HPRT (Hs02800695_m1) were used to analyze fold expression of CYP1A1 of HPRT. Quantitation was performed on a Taqman SDS7900HT.

SMILES	IC50 (AHR [1]) [µM]	IC50 (AHR [2]) [µM]	IC50 (AHR [3]) [µM]
Cn1cc(-n2nc(-c3ccc(Cl)cc3)cc(C(=O)N[C@@H]3COC[C@@H]3O)c2=O)cn1 (single isomer, unassigned; enantiomer 2) [Example 45, 6-(4-Chlorophenyl)-N-[(cis)-4-hydroxytetrahydrofuran-3-yl]-2-(1-methyl-1H-pyrazol-4-yl)-3-oxo-2,3-dihydropyridazine-4-carboxamide, Enantiomer 2]	> 20	0.0415	0.0835
O=C(N[C@H]1COC[C@H]1O)c1cc(-c2ccc(OC(F)(F)F)cc2)nn(-c2cccnc2)c1=O (single isomer, unassigned; enantiomer 2) [Example 159, N-[(cis)-4-Hydroxytetrahydrofuran-3-yl]-3-oxo-2-(pyridin-3-yl)-6-[4-(trifluoromethoxy)phenyl]-2,3-dihydropyridazine-4-carboxamide, Enantiomer 2]	> 20	0.057	0.0979
O=C(N[C@H]1COC[C@@H]1O)c1cc(-c2ccc(OC(F)(F)F)cc2)nn(-c2cccnc2)c1=O (single isomer, unassigned; enantiomer 2) [Example 162, N-[(trans)-4-Hydroxytetrahydrofuran-3-yl]-3-oxo-2-(pyridin-3-yl)-6-[4-(trifluoromethoxy)phenyl]-2,3-dihydropyridazine-4-carboxamide, Enantiomer 2]	> 20	0.0273	0.0373
O=C(N[C@H]1COC[C@@H]1O)c1cc(-c2ccc(Cl)cc2)nn(-c2cccnc2)c1=O (single isomer, unassigned; enantiomer 2) [Example 170, 6-(4-Chlorophenyl)-N-[(trans)-4-hydroxytetrahydrofuran-3-yl]-3-oxo-2-(pyridin-3-yl)-2,3-dihydropyridazine-4-carboxamide, Enantiomer 2]	> 20	0.0573	0.0224
Cc1ccc(-c2cc(C(=O)NC(CO)C(C)C)c(=O)n(-c3cnn(C)c3)n2)cc1 (stereo not drawn) [Example 1, N-(1-Hydroxy-3-methylbutan-2-yl)-6-(4-methylphenyl)-2-(1-methyl-1H-pyrazol-4-yl)-3-oxo-2,3-dihydropyridazine-4-carboxamide]	> 20	0.00738	0.0043
Cc1ccc(-c2cc(C(=O)NCC(O)C(F)(F)F)c(=O)n(-c3cnn(C)c3)n2)cc1 (stereo not drawn) [Example 10, 6-(4-Methylphenyl)-2-(1-methyl-1H-pyrazol-4-yl)-3-oxo-N-(3,3,3-trifluoro-2-hydroxypropyl)-2,3-dihydropyridazine-4-carboxamide]	> 20	0.00425	0.0102
Cn1cc(-n2nc(-c3ccc(Cl)cc3)cc(C(=O)NCC(C)(C)O)c2=O)cn1 [Example 32, 6-(4-Chlorophenyl)-N-(2-hydroxy-2-methylpropyl)-2-(1-methyl-1H-pyrazol-4-yl)-3-oxo-2,3-dihydropyridazine-4-carboxamide]	> 20	0.0356	0.0219
Cn1cc(-n2nc(-c3ccc(Cl)cc3)cc(C(=O)N[C@H](CO)C(F)(F)F)c2=O)cn1 [Example 35, (+)-6-(4-Chlorophenyl)-2-(1-methyl-1H-pyrazol-4-yl)-3-oxo-N-[(2R)-1,1,1-trifluoro-3-hydroxypropan-2-yl]-2,3-dihydropyridazine-4-carboxamide]	> 20	0.0015	0.041
Cn1cc(-n2nc(-c3ccc(C(F)(F)F)cc3)cc(C(=O)NC[C@H](O)C(F)(F)F)c2=O)cn1 [Example 37, 2-(1-Methyl-1H-pyrazol-4-yl)-3-oxo-N-[(2S)-3,3,3-trifluoro-2-hydroxypropyl]-6-[4-(trifluoromethyl)phenyl]-2,3-dihydropyridazine-4-carboxamide]	> 20	0.00264	0.000423
C[C@H](CO)NC(=O)c1cc(-c2ccc(C(F)(F)F)cc2)nn(-c2cnn(C)c2)c1=O [Example 38, (−)-N-[(2R)-1-Hydroxypropan-2-yl]-2-(1-methyl-1H-pyrazol-4-yl)-3-oxo-6-[4-(trifluoromethyl)phenyl]-2,3-dihydropyridazine-4-carboxamide]	> 20	0.0343	0.0362
C[C@@H](CO)NC(=O)c1cc(-c2ccc(C(F)(F)F)cc2)nn(-c2cnn(C)c2)c1=O [Example 39, (+)-N-[(2S)-1-Hydroxypropan-2-yl]-2-(1-methyl-1H-pyrazol-4-yl)-3-oxo-6-[4-(trifluoromethyl)phenyl]-2,3-dihydropyridazine-4-carboxamide]	> 20	0.00208	0.00339
Cn1cc(-n2nc(-c3ccc(OC(F)(F)F)cc3)cc(C(=O)N[C@H]3CCCC[C@H]3O)c2=O)cn1 [Example 46, N-[(1S,2R)-2-Hydroxycyclohexyl]-2-(1-methyl-1H-pyrazol-4-yl)-3-oxo-6-[4-(trifluoromethoxy)phenyl]-2,3-dihydropyridazine-4-carboxamide]	> 20	0.00148	0.00136
Cn1cc(-n2nc(-c3ccc(Cl)cc3)cc(C(=O)N[C@H]3CCC[C@@H]3O)c2=O)cn1 [Example 49, 6-(4-Chlorophenyl)-N-[(1S,2S)-2-hydroxycyclopentyl]-2-(1-methyl-1H-pyrazol-4-yl)-3-oxo-2,3-dihydropyridazine-4-carboxamide]	> 20	0.0065	0.00755
Cn1cc(-n2nc(-c3ccc(Cl)cc3)cc(C(=O)N[C@H]3CCC[C@H]3O)c2=O)cn1 [Example 50, 6-(4-Chlorophenyl)-N-[(1S,2R)-2-hydroxycyclopentyl]-2-(1-methyl-1H-pyrazol-4-yl)-3-oxo-2,3-dihydropyridazine-4-carboxamide]	> 20	0.00839	0.00674
C[C@@H](CO)NC(=O)c1cc(-c2ccc(OC(F)(F)F)cc2)nn(-c2cnn(C)c2)c1=O [Example 53, N-[(2S)-1-Hydroxypropan-2-yl]-2-(1-methyl-1H-pyrazol-4-yl)-3-oxo-6-[4-(trifluoromethoxy)phenyl]-2,3-dihydropyridazine-4-carboxamide]	> 20	0.0116	0.0111
C[C@@H](CO)NC(=O)c1cc(-c2ccc(C(F)F)cc2)nn(-c2cnn(C)c2)c1=O [Example 58, 6-[4-(Difluoromethyl)phenyl]-N-[(2S)-1-hydroxypropan-2-yl]-2-(1-methyl-1H-pyrazol-4-yl)-3-oxo-2,3-dihydropyridazine-4-carboxamide]	> 20	0.0186	0.0108
Cn1cc(-n2nc(-c3ccc(Cl)cc3)cc(C(=O)N[C@H]3COCC[C@H]3O)c2=O)cn1 [Example 61, 1,5-Anhydro-2-({[6-(4-chlorophenyl)-2-(1-methyl-1H-pyrazol-4-yl)-3-oxo-2,3-dihydropyridazin-4-yl]carbonyl}amino)-2,4-dideoxy-D-erythro-pentitol]	> 20	0.0284	0.0389
Cn1cc(-n2nc(-c3ccc(C(F)F)cc3)cc(C(=O)NCC(C)(C)O)c2=O)cn1 [Example 62, 6-[4-(Difluoromethyl)phenyl]-N-(2-hydroxy-2-methylpropyl)-2-(1-methyl-1H-pyrazol-4-yl)-3-oxo-2,3-dihydropyridazine-4-carboxamide]	> 20	0.0295	0.0191
